# Measured values as given in patent US8642508B2, “Complex for use in stabilizing herbicidal compositions and methods for synthesizing and using” (Bayer Cropscience LP, priority 2005, dated 2014).
# Key:
# Type in all cases: physicochemical
# [1] = Long-term storage stability, Comparative Example 6 mixture with bromoxynil mixed esters (no buffer); conditions: Comparative Example 6 formulation
# Experimental: (§1) The mixture was tested for long-term storage stability by subjecting separate samples to different temperatures for eight weeks.
# [2] = Long-term storage stability, Comparative Example 5 emulsifiable concentrate with bromoxynil mixed esters (triethylamine buffer); conditions: Comparative Example 5 formulation
# Experimental: An emulsifiable concentrate of fenoxaprop p-ethyl, mefenpyr diethyl, pyrasulfotole and bromoxynil mixed esters was prepared. Triethylamine, a buffer that is not capable of complexing was selected as the buffer. The mixture of Table 9 was prepared by mixing the liquid ingredients, then the solid ingredients at 50° C.
# as §1
# [3] = Long-term storage stability, Comparative Example 1 emulsifiable concentrate (triethanolamine buffer); conditions: Comparative Example 1 formulation
# Experimental: An emulsifiable concentrate of fenoxaprop-ethyl, mefenpyr diethyl, and pyrasulfotole and fillers was prepared. Triethanolamine, a buffer capable of hydrogen bonding, was selected as the buffer. The mixture of Table 1 was prepared by mixing the liquid ingredients, then the solid ingredients at 50° C.
# as §1
# [4] = Long-term storage stability, Example 8 mixture (triethanolamine, without DBSCa); conditions: Example 8 formulation
# Experimental: as §1
# [5] = Long-term storage stability, Example 4 emulsifiable concentrate with bromoxynil mixed esters (triethanolamine buffer); conditions: Example 4 formulation
# Experimental: Triethanolamine, a buffer capable of complexing was selected as the buffer. The mixture of Table 7 was prepared by mixing the liquid ingredients, then the solid ingredients at 50° C.
# as §1
# [6] = Long-term storage stability, Comparative Example 3 emulsifiable concentrate (triethylamine buffer); conditions: Comparative Example 3 formulation
# Experimental: An emulsifiable concentrate of fenoxaprop p-ethyl, mefenpyr diethyl, and pyrasulfotole was prepared. Triethylamine, a buffer that is not capable of complexing or forming a coordination complex or hydrogen bonding, was selected as the buffer. The mixture of Table 5 was prepared by mixing the liquid ingredients, then the solid ingredients at 50° C.
# as §1
# [7] = Long-term storage stability, Comparative Example 2 mixture (no buffer); conditions: Comparative Example 2 formulation
# Experimental: A mixture of fenoxaprop p-ethyl, mefenpyr diethyl, pyrasulfotole, and fillers was prepared in similar manner as in Table 1 but without a buffer system of the invention (see Table 3).
# as §1
# [8] = Long-term storage stability 1 year room temperature, Example 7 emulsifiable concentrate (triethanolamine + DBSCa); conditions: Example 7 formulation; 1 year @ room temp
# Experimental: In this example, an emulsifiable concentrate of fenoxaprop p-ethyl, mefenpyr diethyl, pyrasulfotole and bromoxynil mixed esters was prepared. Triethanolamine, a buffer that is capable of hydrogen bonding, was selected as the buffer. Dodecylbenzenesulfontate calcium, also known as DBSCa was also used to provide a calcium cation for the complex. The mixture of Table 13 was prepared by mixing the liquid ingredients, then the solid ingredients at 50° C.
# The mixture was tested for long-term storage stability by subjecting separate samples to room temperatures for 1 year.
# [9] = 8 weeks @ 40° C., listed as pyrasulfotole
structure (smiles),measurement,setting,value
"CCOC(=O)C1=NN(c2ccc(Cl)cc2Cl)C(C)(C(=O)OCC)C1 (stereo not drawn) [Mefenpyr diethyl, mefenpyr diethyl]",Avg. Wt % active ingredient,[1]; 8 weeks @ 0° C.,2.98 Wt %
same,Avg. Wt % active ingredient,[1]; 8 weeks @ 40° C.,3.01 Wt %
same,change from 0° C.,[1]; 8 weeks @ 40° C.,1.01%
same,Avg. Wt % active ingredient,[1]; 8 weeks @ room temp.,3.00 Wt %
same,change from 0° C.,[1]; 8 weeks @ room temp.,0.67%
same,Avg. Wt % active ingredient,[2]; 8 weeks @ 0° C.,1.73 Wt %
same,Avg. Wt % active ingredient,[2]; 8 weeks @ 40° C.,1.75 Wt %
same,change from 0° C.,[2]; 8 weeks @ 40° C.,0.88%
same,Avg. Wt % active ingredient,[2]; 8 weeks @ room temp.,1.75 Wt %
same,change from 0° C.,[2]; 8 weeks @ room temp.,0.77%
same,Avg. Wt % active ingredient,[3]; 8 weeks @ 0° C.,3.77 Wt %
same,Avg. Wt % active ingredient,[3]; 8 weeks @ 40° C.,3.74 Wt %
same,change from 0° C.,[3]; 8 weeks @ 40° C.,−0.65%
same,Avg. Wt % active ingredient,[3]; 8 weeks @ 50° C.,3.72 Wt %
same,change from 0° C.,[3]; 8 weeks @ 50° C.,−1.17%
same,Avg. Wt % active ingredient,[3]; 8 weeks @ room temp.,3.76 Wt %
same,change from 0° C.,[3]; 8 weeks @ room temp.,−0.17%
same,Avg. Wt % active ingredient,[4]; 8 weeks @ 0° C.,1.74 Wt %
same,Avg. Wt % active ingredient,[4]; 8 weeks @ 40° C.,1.72 Wt %
same,change from 0° C.,[4]; 8 weeks @ 40° C.,−1.29%
same,Avg. Wt % active ingredient,[5]; 8 weeks @ 0° C.,1.82 Wt %
same,Avg. Wt % active ingredient,[5]; 8 weeks @ 40° C.,1.80 Wt %
same,change from 0° C.,[5]; 8 weeks @ 40° C.,−0.92%
same,Avg. Wt % active ingredient,[6]; 8 weeks @ 0° C.,3.80 Wt %
same,Avg. Wt % active ingredient,[6]; 8 weeks @ 40° C.,3.72 Wt %
same,change from 0° C.,[6]; 8 weeks @ 40° C.,−2.10%
same,Avg. Wt % active ingredient,[6]; 8 weeks @ 50° C.,3.73 Wt %
same,change from 0° C.,[6]; 8 weeks @ 50° C.,−1.93%
same,Avg. Wt % active ingredient,[6]; 8 weeks @ room temp.,3.77 Wt %
same,change from 0° C.,[6]; 8 weeks @ room temp.,−0.87%
same,Avg. Wt % active ingredient,[7]; 8 weeks @ 0° C.,3.81 Wt %
same,Avg. Wt % active ingredient,[7]; 8 weeks @ 40° C.,3.85 Wt %
same,change from 0° C.,[7]; 8 weeks @ 40° C.,−1.05%
same,Avg. Wt % active ingredient,[7]; 8 weeks @ 50° C.,3.97 Wt %
same,change from 0° C.,[7]; 8 weeks @ 50° C.,−4.20%
same,Avg. Wt % active ingredient,[7]; 8 weeks @ room temp.,4.01 Wt %
same,change from 0° C.,[7]; 8 weeks @ room temp.,+5.24%
"CCCCCCCC(=O)Oc1c(Br)cc(C#N)cc1Br [Bromoxynil Octanoate, bromoxynil octanoate]",Avg. Wt % active ingredient,[2]; 8 weeks @ 0° C.,5.67 Wt %
same,Avg. Wt % active ingredient,[2]; 8 weeks @ 40° C.,5.02 Wt %
same,change from 0° C.,[2]; 8 weeks @ 40° C.,−11.52%
same,Avg. Wt % active ingredient,[2]; 8 weeks @ room temp.,5.65 Wt %
same,change from 0° C.,[2]; 8 weeks @ room temp.,−0.41%
same,Avg. Wt % active ingredient,[8],13.08 Wt %
same,Change from expected,[8],−3.083%
"CCCCCCC(=O)Oc1c(Br)cc(C#N)cc1Br [Bromoxynil Heptanoate Esters, bromoxynil heptanoate]",Avg. Wt % active ingredient,[8],12.47 Wt %
same,Change from expected,[8],−3.03%
"CCOC(=O)[C@@H](C)Oc1ccc(Oc2nc3ccc(Cl)cc3o2)cc1 [Fenoxaprop p-ethyl, fenoxaprop p-ethyl]",Avg. Wt % active ingredient,[1]; 8 weeks @ 0° C.,6.97 Wt %
same,Avg. Wt % active ingredient,[1]; 8 weeks @ 40° C.,2.34 Wt %
same,change from 0° C.,[1]; 8 weeks @ 40° C.,−66.43%
same,Avg. Wt % active ingredient,[1]; 8 weeks @ room temp.,6.15 Wt %
same,change from 0° C.,[1]; 8 weeks @ room temp.,−11.76%
same,Avg. Wt % active ingredient,[2]; 8 weeks @ 0° C.,4.30 Wt %
same,Avg. Wt % active ingredient,[2]; 8 weeks @ 40° C.,4.33 Wt %
same,change from 0° C.,[2]; 8 weeks @ 40° C.,0.68%
same,Avg. Wt % active ingredient,[2]; 8 weeks @ room temp.,4.33 Wt %
same,change from 0° C.,[2]; 8 weeks @ room temp.,0.07%
same,Avg. Wt % active ingredient,[8],7.95 Wt %
same,Change from expected,[8],−0.625%
same,Avg. Wt % active ingredient,[3]; 8 weeks @ 0° C.,9.41 Wt %
same,Avg. Wt % active ingredient,[3]; 8 weeks @ 40° C.,9.00 Wt %
same,change from 0° C.,[3]; 8 weeks @ 40° C.,−4.31%
same,Avg. Wt % active ingredient,[3]; 8 weeks @ 50° C.,8.58 Wt %
same,change from 0° C.,[3]; 8 weeks @ 50° C.,−8.83%
same,Avg. Wt % active ingredient,[3]; 8 weeks @ room temp.,9.34 Wt %
same,change from 0° C.,[3]; 8 weeks @ room temp.,−0.69%
same,Avg. Wt % active ingredient,[4]; 8 weeks @ 0° C.,4.33 Wt %
same,Avg. Wt % active ingredient,[4]; 8 weeks @ 40° C.,4.00 Wt %
same,change from 0° C.,[4]; 8 weeks @ 40° C.,−5.75%
same,Avg. Wt % active ingredient,[5]; 8 weeks @ 0° C.,4.32 Wt %
same,Avg. Wt % active ingredient,[5]; 8 weeks @ 40° C.,3.96 Wt %
same,change from 0° C.,[5]; 8 weeks @ 40° C.,−8.25%
same,Avg. Wt % active ingredient,[6]; 8 weeks @ 0° C.,2.93 Wt %
same,Avg. Wt % active ingredient,[6]; 8 weeks @ 40° C.,2.80 Wt %
same,change from 0° C.,[6]; 8 weeks @ 40° C.,−4.37%
same,Avg. Wt % active ingredient,[6]; 8 weeks @ 50° C.,2.74 Wt %
same,change from 0° C.,[6]; 8 weeks @ 50° C.,−6.39%
same,Avg. Wt % active ingredient,[6]; 8 weeks @ room temp.,2.89 Wt %
same,change from 0° C.,[6]; 8 weeks @ room temp.,−1.19%
same,Avg. Wt % active ingredient,[7]; 8 weeks @ 0° C.,8.20 Wt %
same,Avg. Wt % active ingredient,[7]; 8 weeks @ 40° C.,2.64 Wt %
same,change from 0° C.,[7]; 8 weeks @ 40° C.,−67.80%
same,Avg. Wt % active ingredient,[7]; 8 weeks @ 50° C.,0.91 Wt %
same,change from 0° C.,[7]; 8 weeks @ 50° C.,−88.90%
same,Avg. Wt % active ingredient,[7]; 8 weeks @ room temp.,6.49 Wt %
same,change from 0° C.,[7]; 8 weeks @ room temp.,−20.85%
"Cc1nn(C)c(O)c1C(=O)c1ccc(C(F)(F)F)cc1S(C)(=O)=O [Pyrasulfotole, pyrasulfotole]",Avg. Wt % active ingredient,[1]; 8 weeks @ 0° C.,3.26 Wt %
same,Avg. Wt % active ingredient,[1]; 8 weeks @ 40° C.,2.81 Wt %
same,change from 0° C.,[1]; 8 weeks @ 40° C.,−13.8%
same,Avg. Wt % active ingredient,[1]; 8 weeks @ room temp.,3.01 Wt %
same,change from 0° C.,[1]; 8 weeks @ room temp.,−7.67%
same,Avg. Wt % active ingredient,[2]; 8 weeks @ 0° C.,1.38 Wt %
same,Avg. Wt % active ingredient,[2]; 8 weeks @ 40° C.,1.26 Wt %
same,change from 0° C.,[2]; 8 weeks @ 40° C.,−9.04%
same,change from 0° C.,[2]; [9],−9.04%
same,Avg. Wt % active ingredient,[2]; 8 weeks @ room temp.,1.30 Wt %
same,change from 0° C.,[2]; 8 weeks @ room temp.,−5.80%
same,Avg. Wt % active ingredient,[8],3.14 Wt %
same,Change from expected,[8],−3.083%
same,Avg. Wt % active ingredient,[3]; 8 weeks @ 0° C.,5.57 Wt %
same,Avg. Wt % active ingredient,[3]; 8 weeks @ 40° C.,5.53 Wt %
same,change from 0° C.,[3]; 8 weeks @ 40° C.,−0.82%
same,Avg. Wt % active ingredient,[3]; 8 weeks @ 50° C.,5.51 Wt %
same,change from 0° C.,[3]; 8 weeks @ 50° C.,−1.12%
same,Avg. Wt % active ingredient,[3]; 8 weeks @ room temp.,5.67 Wt %
same,change from 0° C.,[3]; 8 weeks @ room temp.,1.71%
same,Avg. Wt % active ingredient,[4]; 8 weeks @ 0° C.,1.74 Wt %
same,Avg. Wt % active ingredient,[4]; 8 weeks @ 40° C.,1.65 Wt %
same,change from 0° C.,[4]; 8 weeks @ 40° C.,−4.81%
same,Avg. Wt % active ingredient,[5]; 8 weeks @ 0° C.,1.42 Wt %
same,Avg. Wt % active ingredient,[5]; 8 weeks @ 40° C.,1.40 Wt %
same,change from 0° C.,[5]; 8 weeks @ 40° C.,−1.30%
same,change from 0° C.,[5]; [9],−1.30%
same,Avg. Wt % active ingredient,[6]; 8 weeks @ 0° C.,5.38 Wt %
same,Avg. Wt % active ingredient,[6]; 8 weeks @ 40° C.,5.43 Wt %
same,change from 0° C.,[6]; 8 weeks @ 40° C.,0.85%
same,Avg. Wt % active ingredient,[6]; 8 weeks @ 50° C.,5.60 Wt %
same,change from 0° C.,[6]; 8 weeks @ 50° C.,4.07%
same,Avg. Wt % active ingredient,[6]; 8 weeks @ room temp.,5.46 Wt %
same,change from 0° C.,[6]; 8 weeks @ room temp.,1.51%
same,Avg. Wt % active ingredient,[7]; 8 weeks @ 0° C.,4.76 Wt %
same,Avg. Wt % active ingredient,[7]; 8 weeks @ 40° C.,4.69 Wt %
same,change from 0° C.,[7]; 8 weeks @ 40° C.,−1.47%
same,Avg. Wt % active ingredient,[7]; 8 weeks @ 50° C.,4.54 Wt %
same,change from 0° C.,[7]; 8 weeks @ 50° C.,−4.62%
same,Avg. Wt % active ingredient,[7]; 8 weeks @ room temp.,4.75 Wt %
same,change from 0° C.,[7]; 8 weeks @ room temp.,−0.21%
